# Measured values: ChEMBL document CHEMBL5352484, “Discovery of a potent and long-acting Xenopus GLP-1-based GLP-1/glucagon/Y2 receptor triple agonist” (Eur J Med Chem, 2023)
# The source made the active and inactive calls. No cut-off for these calls is given here.
# Columns and labels:
# [1] = test system: Mus musculus; assay: Hypoglycemic activity in ICR mouse assessed as decrease in blood glucose level at 30 nmol/kg, ip pretreated for 30 mins followed by glucose addition and measured upto 120 mins in presence of 60 nmol/kg Lys7(C16-gammaGlu)PYY3-36 by OGTT; assay type: functional, organism-based; details: time <= 150.0 min
# [2] = test system: Mus musculus; assay: Hypoglycemic activity in ICR mouse assessed as decrease in blood glucose level at 30 nmol/kg, ip pretreated for 30 mins followed by glucose addition and measured upto 120 mins by OGTT; assay type: functional, organism-based; details: time <= 150.0 min
# [3] = test system: Mus musculus; assay: Antiobesity activity in ICR mouse assessed as reduction in food intake at […], sc measured upto 24 hrs; assay type: functional; set-up: scale not given: the % may be the effect or the level left
# [4] = test system: Mus musculus; assay: Antiobesity activity in ICR mouse assessed as reduction in food intake at […], sc measured upto 24 hrs in presence of Lys7(C16-gammaGlu)PYY3-36; assay type: functional; set-up: scale not given: the % may be the effect or the level left
# [5] = test system: Mus musculus; assay: Anti-obesity activity in C57BL/6J mouse model of high-fat diet induced obesity assessed as decrease in body weight at 30 nmol/kg, sc administered twice daily for 7 days; assay type: functional; set-up: scale not given: the % may be the effect or the level left; details: time 7 day
# [6] = test system: Mus musculus; assay: Anti-obesity activity in C57BL/6J mouse model of high-fat diet induced obesity assessed as decrease in body weight at 30 nmol/kg, sc administered twice daily for 7 days in presence of 60 nmol/kg Lys7(C16-gammaGlu)PYY3-36; assay type: functional; set-up: scale not given: the % may be the effect or the level left; details: time 7 day
# [7] = test system: Mus musculus; assay: Anti-obesity activity in C57BL/6J mouse model of high-fat diet induced obesity assessed as decrease in food intake at 30 nmol/kg, sc administered twice daily for 7 days in presence of 60 nmol/kg Lys7(C16-gammaGlu)PYY3-36; assay type: functional, organism-based; details: time 7.0 day
# [8] = test system: Mus musculus; assay: Anti-diabetic activity in C57BL/6J mouse model of high-fat diet induced obesity assessed as improved in glucose tolerance at 30 nmol/kg, sc administered twice daily for 7 days in presence of 60 nmol/kg Lys7(C16-gammaGlu)PYY3-36; assay type: functional, organism-based; details: time 7.0 day
# [9] = test system: Mus musculus; assay: Hypoglycemic activity in ICR mouse assessed as reduction in glucose excursion at 30 nmol/kg, ip measured upto 120 mins; assay type: functional, organism-based
# [10] = test system: Mus musculus; assay: Hypoglycemic activity in ICR mouse at 30 nmol/kg, ip pretreated with Jant-4 for 30 mins prior to compound addition for 30 mins followed by glucose addition and measured upto 120 mins by OGTT; assay type: functional, organism-based; details: time <= 150.0 min
# [11] = test system: Mus musculus; assay: Hypoglycemic activity in ICR mouse at 30 nmol/kg, ip pretreated with JNJ-31020028 for 30 mins prior to compound addition for 30 mins followed by glucose addition and measured upto 120 mins by OGTT; assay type: functional, organism-based; details: time <= 150.0 min
# [12] = test system: Mus musculus; assay: Anorexigenic effect in ICR mouse assessed as inhibition of food intake at 30 nmol/kg, ip pretreated with Jant-4 for 30 mins followed by compound addition for 30 mins; assay type: functional, organism-based
# [13] = test system: Mus musculus; assay: Reduction in saccharin consumption in ip dosed ICR mouse assessed as reduction in saccharin preference ratio pretreated for 40 mins with saccharin followed by compound addition; assay type: functional, organism-based
# [14] = test system: Mus musculus; assay: Antiobesity activity in ICR mouse assessed as reduction in body weight at 30 nmol/kg, sc administered twice daily; assay type: functional; set-up: scale not given: the % may be the effect or the level left
# [15] = test system: Mus musculus; assay: Antiobesity activity in C57BL/6J mouse assessed as reduction in body weight at 10 nmol/kg, sc after 21 days; assay type: functional; set-up: scale not given: the % may be the effect or the level left; details: time 21 day
# [16] = test system: Mus musculus; assay: Reduction in serum ALT level in C57BL/6J mouse at 30 nmol/kg, sc administered for 21 days; assay type: functional, organism-based; details: time 21.0 day
# [17] = test system: Mus musculus; assay: Reduction in serum AST level in C57BL/6J mouse at 30 nmol/kg, sc administered for 21 days; assay type: functional, organism-based; details: time 21.0 day
# [18] = test system: Mus musculus; assay: Reduction in liver TG level in C57BL/6J mouse at 30 nmol/kg, sc administered for 21 days; assay type: functional, organism-based; details: time 21.0 day
# [19] = test system: Mus musculus; assay: Reduction in liver TC level in C57BL/6J mouse at 30 nmol/kg, sc administered for 21 days; assay type: functional, organism-based; details: time 21.0 day
# [20] = target: Glucagon-like peptide 1 receptor (Homo sapiens, UniProt P43220); assay: Agonist activity at GLP-1R (unknown origin) expressed in HEK293 cells assessed as cAMP accumulation incubated for 30 mins by HTRF method; assay type: functional, cell-based
# Sequence of Glucagon-like peptide 1 receptor (P43220 whole entry): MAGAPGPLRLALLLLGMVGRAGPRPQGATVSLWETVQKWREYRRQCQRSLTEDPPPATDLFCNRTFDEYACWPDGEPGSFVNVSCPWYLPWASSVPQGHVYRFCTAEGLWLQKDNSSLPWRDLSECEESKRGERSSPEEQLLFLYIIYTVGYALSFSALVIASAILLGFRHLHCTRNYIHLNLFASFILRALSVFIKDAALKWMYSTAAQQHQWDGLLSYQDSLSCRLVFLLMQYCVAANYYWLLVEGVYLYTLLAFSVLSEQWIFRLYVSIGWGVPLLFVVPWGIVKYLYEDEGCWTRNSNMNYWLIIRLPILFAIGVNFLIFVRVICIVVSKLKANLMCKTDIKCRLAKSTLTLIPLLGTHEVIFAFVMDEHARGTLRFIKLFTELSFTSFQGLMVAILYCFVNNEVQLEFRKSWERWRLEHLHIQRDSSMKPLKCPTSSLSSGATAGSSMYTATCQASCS
# [21] = target: Glucagon receptor (Homo sapiens, UniProt P47871); assay: Agonist activity at GCGR (unknown origin) expressed in HEK293 cells assessed as cAMP accumulation incubated for 30 mins by HTRF method; assay type: functional, cell-based
# Sequence of Glucagon receptor (P47871 whole entry): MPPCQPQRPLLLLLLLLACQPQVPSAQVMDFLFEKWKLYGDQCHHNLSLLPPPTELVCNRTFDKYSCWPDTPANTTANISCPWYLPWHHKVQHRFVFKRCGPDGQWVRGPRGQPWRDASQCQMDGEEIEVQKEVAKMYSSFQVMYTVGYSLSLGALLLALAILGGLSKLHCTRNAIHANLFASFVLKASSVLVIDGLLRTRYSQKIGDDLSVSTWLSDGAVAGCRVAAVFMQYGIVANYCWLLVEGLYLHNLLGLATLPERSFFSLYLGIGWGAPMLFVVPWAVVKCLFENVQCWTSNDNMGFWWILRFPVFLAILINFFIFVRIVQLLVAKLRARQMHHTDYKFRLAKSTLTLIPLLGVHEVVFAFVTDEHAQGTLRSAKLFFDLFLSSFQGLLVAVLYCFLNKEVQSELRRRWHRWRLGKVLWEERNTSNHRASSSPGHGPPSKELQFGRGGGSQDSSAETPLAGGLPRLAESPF
smiles,measurement,setting,value
CCCCCCCCCCCCCCCC(=O)N[C@@H](CCC(=O)NCCCC[C@H](NC(=O)[C@H](Cc1ccc(O)cc1)NC(=O)[C@H](CCCCN)NC(=O)[C@H](CO)NC(=O)[C@@H](NC(=O)[C@H](CC(=O)O)NC(=O)[C@H](CC(N)=O)NC(=O)[C@@H](NC(=O)[C@H](Cc1ccc(O)cc1)NC(=O)[C@@H](NC(=O)CNC(=O)[C@H](CCC(N)=O)NC(=O)[C@@H](CO)NC(=O)[C@@H](N)Cc1c[nH]cn1)[C@@H](C)O)[C@@H](C)O)C(C)C)C(=O)N[C@@H](CC(=O)O)C(=O)N[C@@H](CO)C(=O)N[C@@H](CCCNC(=N)N)C(=O)N[C@@H](CCCNC(=N)N)C(=O)N[C@@H](C)C(=O)N[C@@H](CCC(N)=O)C(=O)N[C@@H](CC(=O)O)C(=O)N[C@@H](Cc1ccccc1)C(=O)N[C@H](C(=O)N[C@@H](CCC(=O)O)C(=O)N[C@@H](Cc1c[nH]c2ccccc12)C(=O)N[C@@H](CC(C)C)C(=O)N[C@@H](CCCCN)C(=O)N[C@@H](CC(N)=O)C(=O)NCC(=O)NCC(=O)N1CCC[C@H]1C(=O)N[C@@H](CO)C(=O)N[C@@H](CO)C(=O)NCC(=O)N[C@@H](C)C(=O)N1CCC[C@H]1C(=O)N1CCC[C@H]1C(=O)N1CCC[C@H]1C(=O)N[C@@H](CO)C(N)=O)[C@@H](C)CC)C(=O)O,Activity,[1],Active
same,Activity,[2],Active
same,Activity,[3],35%
same,Activity,[4],66%
same,Activity,[5],16.6%
same,Activity,[6],28.5%
same,Activity,[7],Active
same,Activity,[8],Active
same,Activity,[9],Active
same,Activity,[10],inactive
same,Activity,[11],inactive
same,Activity,[12],inactive
same,Activity,[13],Dose-Dependent Effect
same,Activity,[14],15.6%
same,Activity,[15],27%
same,Activity,[16],Active
same,Activity,[17],Active
same,Activity,[18],Active
same,Activity,[19],Active
CC[C@H](C)[C@H](NC(=O)[C@H](Cc1ccccc1)NC(=O)[C@H](CC(=O)O)NC(=O)[C@H](CCC(N)=O)NC(=O)[C@H](C)NC(=O)[C@H](CCCNC(=N)N)NC(=O)[C@H](CCCNC(=N)N)NC(=O)[C@H](CO)NC(=O)[C@H](CC(=O)O)NC(=O)[C@H](CCCCN)NC(=O)[C@H](CCC(N)=O)NC(=O)[C@H](CCCCN)NC(=O)[C@H](CO)NC(=O)[C@H](CC(C)C)NC(=O)[C@H](CC(=O)O)NC(=O)[C@H](CO)NC(=O)[C@@H](NC(=O)[C@H](Cc1ccccc1)NC(=O)[C@@H](NC(=O)CNC(=O)[C@H](CCC(N)=O)NC(=O)[C@@H](CO)NC(=O)[C@@H](N)Cc1c[nH]cn1)[C@@H](C)O)[C@@H](C)O)C(=O)N[C@@H](CCC(=O)O)C(=O)N[C@@H](Cc1c[nH]c2ccccc12)C(=O)N[C@@H](CC(C)C)C(=O)N[C@@H](CCCCN)C(=O)N[C@@H](CC(N)=O)C(=O)NCC(=O)NCC(=O)N1CCC[C@H]1C(=O)N[C@@H](CO)C(=O)N[C@@H](CO)C(=O)NCC(=O)N[C@@H](C)C(=O)N1CCC[C@H]1C(=O)N1CCC[C@H]1C(=O)N1CCC[C@H]1C(=O)N[C@@H](CO)C(=O)N[C@@H](CS)C(N)=O,EC50,[20],0.087 nM
same,EC50,[21],0.42 nM
CC[C@H](C)[C@H](NC(=O)[C@H](Cc1ccccc1)NC(=O)[C@H](CC(=O)O)NC(=O)[C@H](CCC(N)=O)NC(=O)[C@H](C)NC(=O)[C@H](CCCNC(=N)N)NC(=O)[C@H](CCCNC(=N)N)NC(=O)[C@H](CO)NC(=O)[C@H](CC(=O)O)NC(=O)[C@H](CCCCN)NC(=O)[C@H](Cc1ccc(O)cc1)NC(=O)[C@H](CCCCN)NC(=O)[C@H](CO)NC(=O)[C@@H](NC(=O)[C@H](CC(=O)O)NC(=O)[C@H](CC(N)=O)NC(=O)[C@@H](NC(=O)[C@H](Cc1ccc(O)cc1)NC(=O)[C@@H](NC(=O)CNC(=O)[C@H](CCC(N)=O)NC(=O)[C@@H](CO)NC(=O)[C@@H](N)Cc1c[nH]cn1)[C@@H](C)O)[C@@H](C)O)C(C)C)C(=O)N[C@@H](CCC(=O)O)C(=O)N[C@@H](Cc1c[nH]c2ccccc12)C(=O)N[C@@H](CC(C)C)C(=O)N[C@@H](CCCCN)C(=O)N[C@@H](CC(N)=O)C(=O)NCC(=O)NCC(=O)N1CCC[C@H]1C(=O)N[C@@H](CO)C(=O)N[C@@H](CO)C(=O)NCC(=O)N[C@@H](C)C(=O)N1CCC[C@H]1C(=O)N1CCC[C@H]1C(=O)N1CCC[C@H]1C(=O)N[C@@H](CO)C(=O)N[C@@H](CS)C(N)=O,EC50,[20],0.048 nM
same,EC50,[21],0.19 nM
